Each structure is given as a SMILES string.

cyclin D1/CDK4, sequence (P11802 whole entry, species assumed): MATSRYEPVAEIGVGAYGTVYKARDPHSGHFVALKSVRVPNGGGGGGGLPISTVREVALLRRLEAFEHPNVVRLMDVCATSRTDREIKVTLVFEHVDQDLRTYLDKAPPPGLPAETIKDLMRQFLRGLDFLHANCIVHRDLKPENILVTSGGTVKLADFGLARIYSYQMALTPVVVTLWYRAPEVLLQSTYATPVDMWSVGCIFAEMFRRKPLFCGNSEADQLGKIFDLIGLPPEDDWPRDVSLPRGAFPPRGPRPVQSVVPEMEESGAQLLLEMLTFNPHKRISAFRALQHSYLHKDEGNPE
cyclin D1/CDK4, sequence (P24385 whole entry partner, species assumed): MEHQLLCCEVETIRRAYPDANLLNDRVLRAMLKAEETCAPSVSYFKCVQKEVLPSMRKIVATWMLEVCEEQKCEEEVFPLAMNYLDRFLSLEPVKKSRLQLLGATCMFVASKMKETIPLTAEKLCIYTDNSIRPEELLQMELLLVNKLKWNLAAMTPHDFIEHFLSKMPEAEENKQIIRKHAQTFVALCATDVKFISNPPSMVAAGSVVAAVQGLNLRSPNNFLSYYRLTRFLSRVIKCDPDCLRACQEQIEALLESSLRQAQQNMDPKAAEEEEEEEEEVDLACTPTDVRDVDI

The assay concerns the target cyclin D1/CDK4 (Homo sapiens, UniProt P11802). The assay can be described thus: Bioassay for CDK-4 inhibitors (phosphorylation of biotinylated peptide substrate, 33P-γ-ATP, flash plates). The assay is classed as biochemical. The settings on record: 2 μM ATP, 2 hours at 37° C., 10 concentrations; read-out: IC50 (concentration which deactivates 50% of CDK-4). On the procedure: In order to detect the inhibitors of cyclin-dependent kinases (CDKs), use is made of a test in which the phosphorylation rate by the cyclin-dependent kinases of a specific peptide substrate is measured. The cyclin-dependent kinases are activated when the kinase binds to its respective cyclin. A [γ-P]-phosphate is transferred from [γ-P]-ATP to the peptide substrate by the activated CDK. The test is carried out in 96-well microtiter plates. The radioactivity of the [γ-P]-phosphate on the substrate is measured.
IC50 values for the caloporoside derivatives are shown in Table 1; this is the concentration which deactivates 50% of CDK-4.
For the determination of the IC50 value, stock solutions of the caloporoside derivatives according to the invention were prepared in a concentration of 10 mM. […] flash plates were coated with 50 μl (50 μg/well) of biotinylated peptide substrate at room temperature, incubated for 2 hours, and subsequently washed 3× with PBS buffer. For the reaction, 30 μl of a buffer-diluted solution of the caloporoside derivatives and 20 μl of a pre-mixed ATP/cyclin D1/CDK4 solution (final concentration: 1 μCl of 33P-γ-ATP, 2 μM of ATP and 1 μg of enzyme mixture) were pipetted onto the plates. After a reaction time of 2 hours at 37° C., the plates were washed 3× with 80 μl of 3% phosphoric acid. Radioactivity was subsequently measured for 30 seconds in a MicroBeta counter. The percentage inhibition was determined with the aid of mathematical equations. For the determination of IC50 values, 10 different concentrations of the compounds according to the invention in a freshly diluted DMSO solution were tested.
Regarding `CC(=O)Oc1cccc(CCCCCCCCCCCCCCCC(C)OC(=O)C(O)C(O)C(O)C(COC(=O)CC(=O)O)OC2OC(CO)C(O)C(O)C2OC(C)=O)c1C(=O)O` (centres unmarked) [Caloporoside C], the IC50 worked out at 3.1 µM.

Take `CC(=O)OC1C(OC(CO)C(O)C(O)C(O)C(=O)OC(C)CCCCCCCCCCCCCCCc2cccc(O)c2C(=O)O)OC(CO)C(O)C1O` (centres unmarked) [Caloporoside F]: the IC50 came to 1.5 µM. Next, `CC(=O)Oc1cccc(CCCCCCCCCCCCCCCC(C)OC(=O)C(O)C(O)C(O)C(CO)OC2OC(CO)C(O)C(O)C2O)c1C(=O)O` (centres unmarked) [Caloporoside B]: 1.5 µM; `CC(=O)OC1C(OC(COC(=O)CC(=O)O)C(O)C(O)C(O)C(=O)OC(C)CCCCCCCCCCCCCCCc2cccc(O)c2C(=O)O)OC(CO)C(O)C1O` (centres unmarked) [Caloporoside D]: 1.8 µM.

Take `CC(=O)OC1C(O)C(CO)OC(OC(COC(=O)CC(=O)O)C(O)C(O)C(O)C(=O)OC(C)CCCCCCCCCCCCCCCc2cccc(O)c2C(=O)O)C1O` (centres unmarked) [Caloporoside E]: the IC50 was 1.8 µM.

Source of the values: US6596694B2, “Caloporoside derivatives, methods of their preparation and use” (Aventis Pharma Deutschland GmbH, priority 2001, dated 2003).
